What was measured:
[1] = tested on: PCa cell; conditions: in vitro and in vivo (Al-Jameel, W. et al. 2017); cited from earlier work
[2] = tested on: PC3 cells; assay: MTT cytotoxicity assay, single drugs and combinations, PC3 cells; format: cell-based; conditions: Homo sapiens, PC-3, 72-hour incubation
[3] = tested on: DU-145 cells; assay: MTT cytotoxicity assay, single drugs and combinations, DU-145 cells; format: cell-based; conditions: Homo sapiens; DU-145, MTT, 72-hour incubation
[4] = tested on: PC3 cells implanted subcutaneously; assay: Subcutaneous PC3 tumor growth in male BALB/c nude mice; format: in vivo; conditions: ip
Procedure: Male BALB/c nude mice (BALB/cOlaHsd-Foxnlnu, 20-30 g, 7-8 weeks old) (Envigo RMS Inc, Indianapolis, Ind.) were used for all experiments. Animals were housed individually at room temperature and were kept on a 12:12-hour light:dark cycle with access to food and water ad libitum. Euthanasia was carried out utilizing CO2 asphyxiation. All of the experiments were approved by the Stony Brook University Animal Care and Use Committee.
Male BALB/c nude mice were subcutaneously inoculated with PC3 cells. Briefly, cells (1×10^6 per mouse) were resuspended in 100 μL of a 1:1 mixture of phosphate-buffered saline (PBS):Matrigel (Corning Inc, Corning, N.Y.) and implanted into a single dorsal lateral flank using a 21G needle. Tumor length (L) and tumor width (W) were measured twice weekly using digital calipers, and tumor volume (V) was calculated as (V═[L×W2]/2). When tumor volume reached approximately 150 to 200 mm3, animals were grouped and drug administration commenced. Humane endpoints for all animals were as follows: animals carrying a tumor burden greater than 35 days, body weight (which was recorded twice weekly) decreasing by greater than 15%, tumor ulceration, paralysis, failure to groom, bleeding, respiratory distress, and/or tumor volume reaching 1500 mm3.
SBFI-102, SBFI-103, and docetaxel were each reconstituted in a 1:1:8 vehicle consisting of dimethyl sulfoxide (DMSO) (Thermo Fisher Scientific, Hampton, N.H.):Cremaphor-EL (Sigma-Aldrich):saline. SBFI-102 and SBFI-103 were administered via intraperitoneal injection (ip) using a 27G needle at 20 mg/kg daily. Docetaxel was administered i.p. at 5 or 10 mg/kg weekly. All drugs were administered in a volume of 10 μL/g body weight.
All data were obtained from at least three independent experiments and then values described in each figure legend depict each independent trial or animal. Data for all in vivo experiments were analyzed using a one-way analysis of variance with the Tukey post hoc test (GraphPad Prism, version 8.0.2). Data are represented as means±SEM and P<0.05 was considered statistically significant. […]

[5] = tested on: 22Rv1 cells; assay: cells; conditions: Homo sapiens, 22Rv1, 72 h, read-out: cytotoxicity IC50
[6] = MTT cytotoxicity assay, RWPE-1 cells (normal prostate cell-line); format: cell-based; conditions: human, RWPE-1, MTT, 72-hour incubation
[7] = MTT cytotoxicity assay, WI-38 cells (normal lung cell-line); format: cell-based; conditions: human, WI-38, MTT, 72-hour incubation
[8] = 20 mg/kg, once daily, from day 15

Row | Compound | effect on PCa cell growth, migration, invasion, tumor formation and metastasis [1] | IC50 [2] [µM] | IC50 [3] [nM] | tumor growth ([4]; docetaxel 10 mg/kg, once weekly) | IC50 [5] [nM] | IC50 at 72 h [6] [µM] | IC50 at 72 h [7] [µM] | tumor growth [4, 8]
1 | O=C(O)C1[C@H](c2ccccc2)C(C(=O)Oc2cccc3ccccc23)[C@H]1c1ccccc1 (some centres unmarked) [SBFI-26] | suppresses PCa cell growth, migration, invasion, tumor formation, and metastasis |  |  |  |  |  |  | 
2 | CC(=O)O[C@@]12CO[C@@H]1C[C@H](O)[C@@]1(C)C(=O)[C@H](O)C3=C(C)[C@@H](OC(=O)[C@H](O)[C@@H](NC(=O)OC(C)(C)C)c4ccccc4)C[C@@](O)([C@@H](OC(=O)c4ccccc4)[C@H]21)C3(C)C [docetaxel, reference compound] |  | 0.0019 | 0.8 | near complete inhibition of growth | 0.3 |  |  | 
3 | COc1ccccc1C1[C@H](C(=O)O)[C@H](c2ccccc2OC)[C@H]1C(=O)OCC1c2ccccc2-c2ccccc21 (some centres unmarked) [SBFI-103] |  | 6.3 | 3300 |  | 3100 | 20.6 | 29.6 | significantly reduced tumor growth
4 | CO[C@H]1C(=O)[C@]2(C)[C@@H](OC)C[C@H]3OC[C@@]3(OC(C)=O)[C@H]2[C@H](OC(=O)c2ccccc2)[C@]2(O)C[C@H](OC(=O)[C@H](O)[C@@H](NC(=O)OC(C)(C)C)c3ccccc3)C(C)=C1C2(C)C [cabazitaxel, reference compound] |  | 0.0016 | 0.2 |  | 0.3 |  |  | 
5 | COc1ccccc1C1[C@H](C(=O)O)[C@H](c2ccccc2OC)[C@H]1C(=O)Oc1cccc2ccccc12 (some centres unmarked) [SBFI-102] |  | 11.4 | 8900 |  | 10100 | 26 | 29.4 | significantly reduced tumor growth

— US20230017948A1, “COMBINATION THERAPY USING FABP5 INHIBITORS WITH TAXANES FOR TREATMENT OF CANCER” (The Research Foundation for The State University of New York, priority 2019, published 2023)
